Measured values reported in patent publication US20150197497A1, “SELECTIVE INHIBITORS OF HISTONE DEACETYLASE ISOFORM 6 AND METHODS THEREOF” (DANA-FARBER CANCER INSTITUTE, INC., priority 2011, published 2015).

Assays:
[1] = test system: acetylated histones; assay: High-content image analysis of induction of acetylated histones in A549 cells; details: for EC50: Homo sapiens, A549, 8 h, read-out: EC50 for half-maximal induction of acetylated histones (AcHistone)
Experimental: (§1) Cells were treated with each test HDACi compound with an automated pin transfer instrument (Janus, Perkin Elmer) and incubated for 8 hours. […] Fixation solution was aspirated and 90 μL of washing solution (0.1% Triton X-100 in PBS) was added prior to 10 minute incubation at 4° C. Washing solution was aspirated and cells were incubated at 4° C. for about 1 hour in blocking solution (0.1% Triton X-100+2% BSA in PBS). Washing solution was aspirated, and cells were incubated for about 1 hour at 4° C. in primary antibody for acetylated-tubulin (Sigma T7451) and acetylated-histone (Cell Signaling #9441L) at a 1:1000 dilution in blocking solution. Primary antibody solution was aspirated, and cells were washed three times in 90 μL of washing solution. […] Secondary antibody and nuclear staining solution was aspirated and cells were washed three times in 90 μL of washing solution. After the third wash, 50 μL of PBS was added to each well. Image acquisition was done on a high content imaging microscope (ImageXpress Micro, Molecular Devices), and image analysis (MetaXpress, Molecular Devices) was performed to obtain average acetylated-tubulin and acetylated-histone signal per cell based on treatment. Replicate experimental data from incubations with inhibitor were normalized to DMSO controls.

[2] = molecular target: T1, HDAC6 (Homo sapiens, UniProt Q9UBN7); assay: In vitro HDAC enzyme inhibition assay, HDAC6; assay type: biochemical; details: recombinant full-length HDAC6, substrate MAZ1600 9 μM
T1 construct: Recombinant, full-length HDAC protein (BPS Biosciences) was incubated with fluorophore conjugated substrate; purchased BPS Biosciences
T1 sequence (Q9UBN7 1-1215): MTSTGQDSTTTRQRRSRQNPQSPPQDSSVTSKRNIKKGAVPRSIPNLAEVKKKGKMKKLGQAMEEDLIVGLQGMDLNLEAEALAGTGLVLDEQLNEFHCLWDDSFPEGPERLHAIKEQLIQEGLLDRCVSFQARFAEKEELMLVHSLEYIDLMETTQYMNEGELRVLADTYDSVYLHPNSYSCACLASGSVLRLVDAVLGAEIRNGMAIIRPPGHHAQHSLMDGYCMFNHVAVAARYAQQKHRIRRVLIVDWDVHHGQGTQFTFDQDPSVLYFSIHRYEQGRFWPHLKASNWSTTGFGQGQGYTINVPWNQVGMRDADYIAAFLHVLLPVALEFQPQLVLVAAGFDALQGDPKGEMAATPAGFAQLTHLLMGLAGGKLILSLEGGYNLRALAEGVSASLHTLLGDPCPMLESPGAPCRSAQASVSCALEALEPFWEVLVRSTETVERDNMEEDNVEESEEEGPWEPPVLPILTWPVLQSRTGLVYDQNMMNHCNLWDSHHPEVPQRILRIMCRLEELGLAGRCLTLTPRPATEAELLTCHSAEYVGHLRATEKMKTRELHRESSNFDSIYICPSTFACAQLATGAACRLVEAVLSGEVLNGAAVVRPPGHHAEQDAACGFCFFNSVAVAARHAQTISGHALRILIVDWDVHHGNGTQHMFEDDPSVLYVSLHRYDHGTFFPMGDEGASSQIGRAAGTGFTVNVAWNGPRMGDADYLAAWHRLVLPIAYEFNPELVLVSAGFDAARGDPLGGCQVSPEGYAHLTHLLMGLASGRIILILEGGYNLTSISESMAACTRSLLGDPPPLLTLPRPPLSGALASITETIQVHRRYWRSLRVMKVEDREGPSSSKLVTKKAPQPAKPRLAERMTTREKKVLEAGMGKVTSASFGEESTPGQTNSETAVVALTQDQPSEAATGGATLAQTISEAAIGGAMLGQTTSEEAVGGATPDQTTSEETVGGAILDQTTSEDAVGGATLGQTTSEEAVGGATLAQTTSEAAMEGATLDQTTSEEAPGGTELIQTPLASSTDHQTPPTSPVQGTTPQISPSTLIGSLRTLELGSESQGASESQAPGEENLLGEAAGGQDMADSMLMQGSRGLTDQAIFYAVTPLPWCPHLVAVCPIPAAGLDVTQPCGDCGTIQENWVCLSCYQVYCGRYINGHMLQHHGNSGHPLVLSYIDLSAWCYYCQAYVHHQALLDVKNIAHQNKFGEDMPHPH
Experimental: In vitro Histone Deacetylase enzyme assays were performed using Class I (isoforms: HDAC1, HDAC2, HDAC3 and HDAC8), class IIa (isoforms: HDAC4, HDAC5, HDAC7 and HDAC9) and class IIb (isoform HDAC6).
HDAC activities were determined in vitro with an optimized homogenous assay performed in a 384-well plate. Recombinant, full-length HDAC protein (BPS Biosciences) was incubated with fluorophore conjugated substrate, MAZ1600 and MAZ1675, at Km=[S]. […] Reactions were performed in assay buffer (50 mM HEPES, 100 mM KCl, 0.001% Tween-20, 0.05% BSA, 200 μM tris(2-carboxyethyl)phosphine (TCEP), pH 7.4) and followed for fluorogenic release of 7-amino-4-methylcoumarin from substrate upon deacetylase and trypsin enzymatic activity. Fluorescence measurements were obtained every five minutes using a multilabel plate reader and plate-stacker (Envision; Perkin-Elmer). Each plate was analyzed by plate repeat, and the first derivative within the linear range was imported into analytical software (Spotfire DecisionSite and GraphPad Prism). Replicate experimental data from incubations with inhibitor were normalized to controls.

[3] = test system: acetylated tubulin; assay: High-content image analysis of induction of acetylated tubulin in A549 cells
Experimental: as §1

SMILES	EC50 [1]	IC50 [2]	EC50 ([3]; Homo sapiens, A549, 8 h, read-out: EC50 for half-maximal induction of acetylated tubulin (AcTubulin))	AcHistone/AcTubulin in cell selectivity toward HDAC6 ([3]; ratio of EC50 acetylated histone to EC50 acetylated tubulin, A549 cells)	levels of acetylated histone, dose response (in words) ([1]; A549 cells, FIG. 11)	levels of acetylated tubulin, dose response (in words) ([3]; A549 cells, FIG. 11)
Cc1ccc2c(c1)nnn2Cc1ccc(C(=O)NO)cc1 [C2, N-hydroxy-4-((5-methyl-1H-benzo[d][1,2,3]triazol-1-yl)methyl)benzamide]	2.52 µM	1.47 µM	0.124 µM	20.3		
O=C(CCCCCCC(=O)Nc1ccccc1)NO [SAHA, suberoylanilide hydroxamic acid, reference compound]	0.143 µM				dose-dependent increase	dose-dependent increase
